# Experimental data: US10709724B2, “Methods of treating mitochondrial dysfunction” (Ecole Polytechnique Federale de Lausanne (EPFL), priority 2011, dated 2020)
# Where “and” joins values, the source holds several entries; their conditions need not be identical. Identical values can stand only once. Entries after “also recorded” stand apart in the source; their conditions may differ.
# What was measured:
# C. elegans [1] = assay: Worm lifespan analysis; format: in vivo; details: for variation compared to control (%): vs N2 + water
# Protocol: Worm Lifespan Analysis Lifespan tests were performed as described in Mouchiroud et al (L. Mouchiroud et al., Pyruvate imbalance mediates metabolic reprogramming and mimics lifespan extension by dietary restriction in Caenorhabditis elegans. Aging Cell 10, 39 (2011)). Briefly, 60-100 animals were used per conditions and scored every other day. All lifespan experiments were performed at 20° C. […] Animals were exposed to compounds during the full life from eggs until death. To ensure a permanent exposure to the compound, plates were changed twice a week. All the compounds used in this study were dissolved in a water stock solution.
# C. elegans [2] = assay: Quantitative RT-PCR in worms; format: in vivo
# Protocol: (§1) mRNA and mtDNA Analysis. Total RNA was prepared using TRIzol (Invitrogen) according to the manufacturer's instructions. RNA was treated with DNase, and 2 μg of RNA was used for reverse transcription (RT). cDNA was purified on QIAquick PCR cleanup columns (Qiagen, Valencia, Calif., USA). 50× diluted cDNA was used for RT-quantitative PCR (RT-VCR) VCR) reactions (Bai et al., 2007). The RT-qPCR reactions were performed using the Light-Cycler system (Roche Applied Science) and a qPCR Supermix (Qiagen) with the primers for mice summarized in Table 1 and 4, and with the primers for worms summarized on Table 7. mtDNA quantification was performed as described (Lagouge et al., 2006) with the primers indicated in Table 2 and 5.
# C2C12 myotubes [3] = assay: Intracellular NAD+ content in C2C12 myotubes treated with PARP inhibitors; format: cell-based; design: intracellular NAD+ over time / H2O2-induced NAD+ depletion: dose or concentration left out as unconfirmed
# Protocol: (§2) Cell Culture, Transfection, Adenoviral Infection and Mitochondrial Characterization. HEK293T, MEF and C2C12 cells were cultured in DMEM (4.5 g/l glucose, 10% FCS). PARP-1^+/+ and PARP-1^−/− MEFs were prepared as described in (Menissier-de Murcia et al., 1997). SIRT1 and MEFs were kindly provided by Fred Alt (Chea et al., 2005). SIRT3 MER were established according to standard techniques from conditional SERT3^−/− mice. (Picard, F., Gehin, M., Annicotte, J., Rocchi, S., Champy, M. F., O'Malley, B. W., Chambon, P., and Auwerx, J. (2002). SRC-1 and TIF2 control energy balance between white and brown adipose tissues. Cell 111, 931-941.) Deletion of the SIRT3 gene was induced via infection with adenovirus encoding for the Cre recombinase. HEK293T cells were transfected using JetPei reagent (Polyplus Transfections, Illkirch, France) according to the manufacturer's instructions. C2C12 cells were differentiated in DMEM (4.5 g/L glucose, 2% horse serum) after reaching confluency for 2 days, followed by 2 days of PJ34 treatment (10 μM). PARP-1 shRNA constructs were described in (Shah et al., 2005). Human PARP-1 and siRNAs were obtained from Dharmacon (Thermo Scientific). The adenovirus encoding for FLAG-HA-PGC-1α, control and SIRT1 shRNAs were a kind gift from Pere Puigserver and were used (MOI=100) in C2C12 myotubes as described (Canto et al., 2009). Mitochondrial charge determination was performed as described (Bai et al., 2001) and DNA strand breaks were quantified by TUNEL assays according to the manufacturer's instructions (Millipore).
# NAD^+ NAM Determination. NAD^+ levels in cultured cells were determined using a commercial kit (Enzychrom™, BioAssays Systems, CA). For tissue samples NAD^+ and NAM levels were determined as described in (Sauve et al., 2005). In brief, to a weighed aliquot of frozen pulverized tissue we added as standards, ^18O-NAD^+ (typically 2.00 nmol) and ^18O-NAM (typically 2.00 nmol). 70 L of ice-cold 7% perchloric acid was then added and the sample was vortexed and sonicated three times, then centrifuged. Clear supernatant was removed and neutralized by additions of 3 M NaOH and 1 M phosphate buffer (pH=9), then centrifuged. Clear supernatant was injected onto HPLC C-18 column with 20 mM ammonium acetate eluent to separate NAD^+ and NAM from other cellular components, NAD^+ and NAM peaks (260 nm absorbance) were collected. Collections were lyophilized to dryness and subjected to MALDI-TOF analysis. For NAD^+ measurement, ratio of intensities for m/z=664 and 666 peaks, corresponding to ^16O- and ^18O-NAD^+ isotopomers, was multiplied by 2.00 nmol and then divided by tissue weight to determine NAD+ concentration in the sample. For NAM the ratio of intensities for m/z=123 and 125 peaks, corresponding to ^16O- and ^18O-NAM isotopomers, was multiplied by 2.00 nmol and then divided by tissue weight to determine NAM concentration in the sample. Corrections were applied for isotopic abundance. Other NAD metabolites were determined as previously described (Yang and Sauve, Synthesis of nictotinamide riboside and derivatives: effective agents for increasing nictinomide adenine dinucleotide concentrations in mammalian cells. J Med Chem 50, 6458-6461 (2006)).
# C2C12 myotubes [4] = assay: Mitochondrial gene expression, mtDNA and membrane potential in C2C12 myotubes; format: cell-based
# Protocol: as §2, §1
# Mitochondrial DNA Measurement The assay was performed as described (Lagouge et al., 2006). DNA. was extracted using the standard proteinase K digestion following phenol-chloroform extraction. Mitochondrial and genomic DNA was determined using specific primers in qPCR reactions (primers summarized in Table 2 and 5.) and was expressed as percentage of WT.
smiles,measurement,setting,value
"NC(=O)c1ccc[n+]([C@@H]2O[C@H](CO)[C@@H](O)[C@H]2O)c1 [NR, nicotinamide riboside]",mean lifespan ± SE,"C. elegans [1]; N2, 200 nM",21.1 ± 0.88 days
same,variation compared to control (%),"C. elegans [1]; N2, 200 nM",+17.9%
same,mean lifespan ± SE,"C. elegans [1]; N2, 500 nM",23.5 ± 0.56 days and 24.9 ± 0.68 days and 20.6 ± 1.02 days
same,mean lifespan ± SE,"C. elegans [1]; N2, 1000 nM",20.0 ± 0.89 days
same,variation compared to control (%),"C. elegans [1]; N2, 1000 nM",+11.7%
same,lifespan in daf-16 mutant worms,C. elegans [1]; daf-16(mu86) mutant worms,completely abolished; also recorded: daf-16-dependent
same,mean lifespan ± SE,"C. elegans [1]; daf-16(mu86), 500 nM",19.1 ± 0.51 days
same,variation compared to control (%),"C. elegans [1]; daf-16(mu86), 500 nM",−7.8%
same,lifespan in sir-2.1(ok434) mutant / sir-2.1 dependence,C. elegans [1]; sir-2.1(ok434) mutant worms,sir-2.1-dependent fashion; also recorded: sir-2-dependent manner
same,mean lifespan ± SE,"C. elegans [1]; sir-2.1(ok434), 500 nM",23.2 ± 0.61 days
same,variation compared to control (%),"C. elegans [1]; sir-2.1(ok434), 500 nM",+12.0%
same,lifespan,C. elegans [1]; wild type N2 worms,extended lifespan; also recorded: increases
same,"expression of genes of mitochondrial oxidative metabolism (cts-1, cox-4)",C. elegans [2]; day 3 of adulthood,trend for increased cts-1 expression
same,daf-16 expression,C. elegans [2]; in vivo,without affecting daf-16 mRNA levels
same,sod-3 expression,C. elegans [2]; in vivo,significantly higher sod-3 expression
CN(C)CC(=O)Nc1ccc2[nH]c(=O)c3ccccc3c2c1 [PJ34],"intracellular NAD+ at 24 hrs, dose dependence",C2C12 myotubes [3]; 24 hrs (FIG. 6F),dose dependent manner
same,intracellular NAD+ content,"C2C12 myotubes [3]; 24 hrs, 1 mM (FIG. 13B)",leads to increased intracellular content
same,intracellular NAD+ during H2O2 treatment,"C2C12 myotubes [3]; H2O2 500 μM, 6 hrs, PJ34 1 μM",prevented the decrease in intracellular NAD^+
same,H2O2-induced NAD+ depletion,"C2C12 myotubes [3]; PJ34 24 hrs, H2O2 1 hr (FIG. 13B)",global inhibition of PARP activity with PJ34 did
same,intracellular NAD+ over time,C2C12 myotubes [3]; PJ34 for the times indicated (FIG. 6D),"gradual increase in NAD^+, becoming significant 24 hrs after the initiation of the treatment"
same,mitochondrial DNA content,"C2C12 myotubes [4]; 1 μM, 48 h",higher mitochondrial DNA content
same,mitochondrial membrane potential,"C2C12 myotubes [4]; 1 μM, 48 h",higher mitochondrial potential
same,"expression of mitochondrial genes (Ndufa2, Ndufa3, MCAD, PDK4, UCP3)",C2C12 myotubes [4]; 48 hrs,increased expression of several mitochondrial genes
same,UCP3 mRNA expression with SIRT1 knock-down,C2C12 myotubes [4]; SIRT1 shRNA,persistent increase in UCP3 mRNA expression
same,mitochondrial gene expression with SIRT1 knock-down,C2C12 myotubes [4]; SIRT1 shRNA,largely blunted
